Test results taken from ChEMBL document CHEMBL4507265 (2021).

What was measured:
[1] = biological target: Casein kinase I isoform epsilon (Homo sapiens) (UniProt P49674); details: Compound concentration 1000.0 nM
[2] = biological target: Histamine H3 receptor (Homo sapiens) (UniProt Q9Y5N1); details: Compound concentration 10.0 uM
[3] = biological target: Proto-oncogene tyrosine-protein kinase receptor Ret (Homo sapiens) (UniProt P07949); details: Compound concentration 1000.0 nM
[4] = biological target: Microtubule-associated serine/threonine-protein kinase 1 (Homo sapiens) (UniProt Q9Y2H9); details: Compound concentration 1000.0 nM
[5] = biological target: Calcium/calmodulin-dependent protein kinase type 1 (Homo sapiens) (UniProt Q14012); details: Compound concentration 1000.0 nM
[6] = system: Receptor-type tyrosine-protein kinase FLT3 (Homo sapiens), P36888 [D835V]; details: Compound concentration 1000.0 nM
[7] = biological target: Ephrin type-A receptor 6 (Homo sapiens) (UniProt Q9UF33); details: Compound concentration 1000.0 nM
[8] = biological target: Mitogen-activated protein kinase 6 (Homo sapiens) (UniProt Q16659); details: Compound concentration 1000.0 nM
[9] = biological target: Epidermal growth factor receptor (Homo sapiens) (UniProt P00533); details: Compound concentration 1000.0 nM
[10] = biological target: Mitogen-activated protein kinase kinase kinase kinase 1 (Homo sapiens) (UniProt Q92918); details: Compound concentration 1000.0 nM
[11] = biological target: Beta-3 adrenergic receptor (Homo sapiens) (UniProt P13945); details: Compound concentration 10.0 uM
[12] = biological target: Ephrin type-A receptor 8 (Homo sapiens) (UniProt P29322); details: Compound concentration 1000.0 nM
[13] = biological target: voltage-gated sodium channel, site 2 (Rattus norvegicus, UniProt F1LQQ7+O08562+O88420+O88457+P04774+P04775+P08104+P15389+P15390+Q62968); assay: Inhibition of Sodium Channel, Site 2 at 10 µM in the Eurofins-Panlabs radioligand binding assay (Eurofins_assay_279510); assay type: protein assay; parameters: ligand concentration 5 nM, non-specific ligand with concentration 100 µM Veratridine, incubation time 60 min, incubation temperature 37 °C; details: male, Wistar, rat whole brain (except cerebellum) membranes, probe [3H] Batrachotoxinin, 5 nM, compound concentration 10 uM
[14] = biological target: Alpha-2B adrenergic receptor (Homo sapiens, UniProt P18089); assay: GPCRScan assay: inhibition of Alpha2B; parameters: radioligand conc. used [nm] 1.5 – 2.0, parental cells HEKT
[15] = biological target: T1, Alpha-1D adrenergic receptor (Homo sapiens) (UniProt P25100); assay: Inhibition of Adrenergic alpha1D at 10 µM in the Eurofins-Panlabs radioligand binding assay (Eurofins_assay_203400); details: Compound concentration 10.0 uM
T1 sequence (whole entry): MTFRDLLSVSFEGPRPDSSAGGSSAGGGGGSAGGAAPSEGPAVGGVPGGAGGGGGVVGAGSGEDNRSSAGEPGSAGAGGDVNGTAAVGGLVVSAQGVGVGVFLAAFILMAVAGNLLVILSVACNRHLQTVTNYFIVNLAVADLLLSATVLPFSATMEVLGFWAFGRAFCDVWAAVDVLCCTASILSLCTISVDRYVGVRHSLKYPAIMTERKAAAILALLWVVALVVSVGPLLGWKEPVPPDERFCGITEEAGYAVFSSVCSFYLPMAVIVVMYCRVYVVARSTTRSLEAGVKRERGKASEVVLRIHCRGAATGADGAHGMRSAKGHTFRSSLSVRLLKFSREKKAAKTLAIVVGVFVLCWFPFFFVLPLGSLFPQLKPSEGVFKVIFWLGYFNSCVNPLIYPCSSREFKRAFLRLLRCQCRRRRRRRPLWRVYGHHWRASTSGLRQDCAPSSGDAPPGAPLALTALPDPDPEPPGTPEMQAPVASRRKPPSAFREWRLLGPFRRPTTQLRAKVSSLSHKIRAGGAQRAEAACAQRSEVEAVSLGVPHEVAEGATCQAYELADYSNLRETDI

[16] = biological target: T2, Alpha-1A adrenergic receptor (Homo sapiens) (UniProt P35348); details: Rattus norvegicus; Compound concentration 10.0 uM
T2 sequence (whole entry): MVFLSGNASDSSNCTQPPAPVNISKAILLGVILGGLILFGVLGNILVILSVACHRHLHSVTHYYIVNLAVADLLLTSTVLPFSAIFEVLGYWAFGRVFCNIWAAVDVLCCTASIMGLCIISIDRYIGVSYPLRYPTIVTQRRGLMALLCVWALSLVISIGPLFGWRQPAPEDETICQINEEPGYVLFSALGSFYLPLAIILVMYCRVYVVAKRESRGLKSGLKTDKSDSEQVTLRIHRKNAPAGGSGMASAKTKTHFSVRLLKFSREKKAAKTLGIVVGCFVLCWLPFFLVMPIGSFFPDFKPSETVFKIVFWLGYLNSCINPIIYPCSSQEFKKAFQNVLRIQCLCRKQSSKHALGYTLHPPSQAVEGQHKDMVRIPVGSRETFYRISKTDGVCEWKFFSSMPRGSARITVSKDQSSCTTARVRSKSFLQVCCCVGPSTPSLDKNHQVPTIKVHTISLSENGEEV

[17] = biological target: D(1A) dopamine receptor (Homo sapiens) (UniProt P21728); details: Compound concentration 10.0 uM
[18] = biological target: B1 bradykinin receptor (Homo sapiens) (UniProt P46663); assay: Inhibition of Bradykinin B1 at 10 µM in the Eurofins-Panlabs radioligand binding assay (Eurofins_assay_212510); details: Compound concentration 10.0 uM
[19] = biological target: Glutamate NMDA receptor (Rattus norvegicus) (UniProt P35439+Q00959+Q00960+Q00961+Q62645+Q8VHN2+Q9R1M7); details: Compound concentration 10.0 uM
[20] = biological target: T3, D(4) dopamine receptor (Homo sapiens) (UniProt P21917); assay: Inhibition of Dopamine D4.2 at 10 µM in the Eurofins-Panlabs radioligand binding assay (Eurofins_assay_219900); parameters: ligand concentration 0.5 nM; details: Compound concentration 10.0 uM
T3 sequence (whole entry): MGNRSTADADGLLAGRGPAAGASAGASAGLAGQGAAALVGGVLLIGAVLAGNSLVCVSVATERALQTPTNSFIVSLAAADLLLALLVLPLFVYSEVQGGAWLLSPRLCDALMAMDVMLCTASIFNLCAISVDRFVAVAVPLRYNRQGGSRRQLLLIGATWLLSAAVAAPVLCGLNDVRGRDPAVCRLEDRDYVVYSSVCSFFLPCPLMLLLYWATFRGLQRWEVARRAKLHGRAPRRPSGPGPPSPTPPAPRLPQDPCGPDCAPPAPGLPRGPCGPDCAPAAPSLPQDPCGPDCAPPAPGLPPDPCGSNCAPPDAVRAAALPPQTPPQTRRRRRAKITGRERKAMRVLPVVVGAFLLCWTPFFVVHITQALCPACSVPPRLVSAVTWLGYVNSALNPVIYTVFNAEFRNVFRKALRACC

[21] = species: Mus musculus; assay: Inhibition of Phorbol Ester at 10 µM in the Eurofins-Panlabs radioligand binding assay (Eurofins_assay_264500); parameters: ligand concentration 3 nM; details: Compound concentration 10.0 uM

Sequence of Casein kinase I isoform epsilon (Homo sapiens) (P49674 whole entry, looked up, canonical isoform): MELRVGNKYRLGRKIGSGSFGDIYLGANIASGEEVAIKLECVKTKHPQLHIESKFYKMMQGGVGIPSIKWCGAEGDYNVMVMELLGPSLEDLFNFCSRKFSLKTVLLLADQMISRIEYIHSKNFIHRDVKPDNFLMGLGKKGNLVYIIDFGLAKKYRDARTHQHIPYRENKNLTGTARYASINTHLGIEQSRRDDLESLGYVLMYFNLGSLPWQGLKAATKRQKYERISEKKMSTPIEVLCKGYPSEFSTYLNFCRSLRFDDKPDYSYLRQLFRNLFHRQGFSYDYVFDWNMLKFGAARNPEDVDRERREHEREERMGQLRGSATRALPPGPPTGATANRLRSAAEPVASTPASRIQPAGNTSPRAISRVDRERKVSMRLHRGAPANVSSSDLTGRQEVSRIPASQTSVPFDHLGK
Sequence of Beta-3 adrenergic receptor (Homo sapiens) (P13945 whole entry, looked up): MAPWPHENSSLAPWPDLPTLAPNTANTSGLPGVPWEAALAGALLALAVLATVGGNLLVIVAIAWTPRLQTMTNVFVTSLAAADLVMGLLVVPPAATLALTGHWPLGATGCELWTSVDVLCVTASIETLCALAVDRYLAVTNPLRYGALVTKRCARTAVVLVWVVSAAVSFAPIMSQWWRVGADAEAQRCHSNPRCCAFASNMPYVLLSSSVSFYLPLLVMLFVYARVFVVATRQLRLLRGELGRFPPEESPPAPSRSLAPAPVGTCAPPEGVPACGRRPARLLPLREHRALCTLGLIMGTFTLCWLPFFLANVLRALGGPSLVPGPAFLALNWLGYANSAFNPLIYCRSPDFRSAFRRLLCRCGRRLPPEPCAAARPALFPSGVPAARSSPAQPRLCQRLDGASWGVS
Sequence of Ephrin type-A receptor 6 (Homo sapiens) (Q9UF33 whole entry): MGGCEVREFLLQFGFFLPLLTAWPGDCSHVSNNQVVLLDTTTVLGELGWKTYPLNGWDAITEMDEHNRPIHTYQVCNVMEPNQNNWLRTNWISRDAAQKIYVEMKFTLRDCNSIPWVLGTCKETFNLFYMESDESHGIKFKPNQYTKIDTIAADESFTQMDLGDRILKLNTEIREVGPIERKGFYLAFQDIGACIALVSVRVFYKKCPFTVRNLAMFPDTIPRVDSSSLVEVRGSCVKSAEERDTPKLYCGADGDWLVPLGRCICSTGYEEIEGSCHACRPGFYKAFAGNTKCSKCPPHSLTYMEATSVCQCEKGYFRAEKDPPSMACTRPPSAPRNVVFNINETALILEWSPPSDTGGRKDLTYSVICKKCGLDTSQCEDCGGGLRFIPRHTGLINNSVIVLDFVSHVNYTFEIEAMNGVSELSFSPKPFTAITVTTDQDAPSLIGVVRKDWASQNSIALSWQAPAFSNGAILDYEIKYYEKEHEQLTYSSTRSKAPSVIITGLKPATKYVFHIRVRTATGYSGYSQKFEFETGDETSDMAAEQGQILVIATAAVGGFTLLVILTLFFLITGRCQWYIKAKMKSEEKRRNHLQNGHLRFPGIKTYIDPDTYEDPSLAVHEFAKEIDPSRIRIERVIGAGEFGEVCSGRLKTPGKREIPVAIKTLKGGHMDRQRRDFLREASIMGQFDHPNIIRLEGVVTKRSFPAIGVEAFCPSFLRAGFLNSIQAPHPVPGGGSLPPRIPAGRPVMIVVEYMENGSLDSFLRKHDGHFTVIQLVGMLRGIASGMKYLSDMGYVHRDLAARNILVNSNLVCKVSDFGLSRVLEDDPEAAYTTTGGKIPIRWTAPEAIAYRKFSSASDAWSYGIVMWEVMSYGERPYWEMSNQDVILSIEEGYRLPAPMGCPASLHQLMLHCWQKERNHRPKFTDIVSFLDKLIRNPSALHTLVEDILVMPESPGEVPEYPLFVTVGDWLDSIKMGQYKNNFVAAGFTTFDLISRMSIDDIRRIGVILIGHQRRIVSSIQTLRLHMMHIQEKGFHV
Sequence of Calcium/calmodulin-dependent protein kinase type 1 (Homo sapiens) (Q14012 whole entry, looked up): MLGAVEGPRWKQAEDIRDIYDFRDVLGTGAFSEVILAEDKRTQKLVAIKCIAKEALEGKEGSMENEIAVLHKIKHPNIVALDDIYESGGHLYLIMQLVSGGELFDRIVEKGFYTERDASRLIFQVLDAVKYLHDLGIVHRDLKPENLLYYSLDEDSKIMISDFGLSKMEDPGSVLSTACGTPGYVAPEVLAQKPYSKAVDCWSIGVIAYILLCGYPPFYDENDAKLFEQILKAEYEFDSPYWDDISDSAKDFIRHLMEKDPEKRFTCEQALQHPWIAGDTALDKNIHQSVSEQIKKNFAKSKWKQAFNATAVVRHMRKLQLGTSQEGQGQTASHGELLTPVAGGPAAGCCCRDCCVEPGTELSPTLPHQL
Sequence of Ephrin type-A receptor 8 (Homo sapiens) (P29322 whole entry): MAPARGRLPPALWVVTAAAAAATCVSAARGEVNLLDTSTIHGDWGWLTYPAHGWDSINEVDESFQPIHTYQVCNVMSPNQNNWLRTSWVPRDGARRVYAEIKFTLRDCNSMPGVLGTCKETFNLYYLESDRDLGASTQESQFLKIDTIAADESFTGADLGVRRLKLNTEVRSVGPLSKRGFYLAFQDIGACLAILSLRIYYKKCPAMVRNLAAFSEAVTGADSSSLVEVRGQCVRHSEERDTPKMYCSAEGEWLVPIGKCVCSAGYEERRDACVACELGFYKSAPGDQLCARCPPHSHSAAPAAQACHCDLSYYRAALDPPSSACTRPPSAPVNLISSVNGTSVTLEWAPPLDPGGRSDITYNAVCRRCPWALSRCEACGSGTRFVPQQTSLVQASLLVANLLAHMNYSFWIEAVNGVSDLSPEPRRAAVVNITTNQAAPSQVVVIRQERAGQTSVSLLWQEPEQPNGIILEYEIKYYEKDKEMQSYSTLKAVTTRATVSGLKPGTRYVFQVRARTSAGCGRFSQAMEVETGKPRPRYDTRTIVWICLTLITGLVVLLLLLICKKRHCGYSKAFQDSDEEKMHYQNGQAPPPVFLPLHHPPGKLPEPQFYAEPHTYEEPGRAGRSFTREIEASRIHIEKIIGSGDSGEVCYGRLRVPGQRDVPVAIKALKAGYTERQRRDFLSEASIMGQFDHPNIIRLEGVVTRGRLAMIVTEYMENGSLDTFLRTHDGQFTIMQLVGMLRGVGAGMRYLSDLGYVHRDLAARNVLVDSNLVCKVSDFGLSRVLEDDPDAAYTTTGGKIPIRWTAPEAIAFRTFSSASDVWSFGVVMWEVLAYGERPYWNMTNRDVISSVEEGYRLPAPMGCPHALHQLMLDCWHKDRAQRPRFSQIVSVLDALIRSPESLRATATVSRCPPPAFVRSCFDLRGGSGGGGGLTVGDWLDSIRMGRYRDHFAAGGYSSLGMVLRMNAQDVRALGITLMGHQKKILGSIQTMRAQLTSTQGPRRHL
Sequence of Mitogen-activated protein kinase kinase kinase kinase 1 (Homo sapiens) (Q92918 whole entry, looked up): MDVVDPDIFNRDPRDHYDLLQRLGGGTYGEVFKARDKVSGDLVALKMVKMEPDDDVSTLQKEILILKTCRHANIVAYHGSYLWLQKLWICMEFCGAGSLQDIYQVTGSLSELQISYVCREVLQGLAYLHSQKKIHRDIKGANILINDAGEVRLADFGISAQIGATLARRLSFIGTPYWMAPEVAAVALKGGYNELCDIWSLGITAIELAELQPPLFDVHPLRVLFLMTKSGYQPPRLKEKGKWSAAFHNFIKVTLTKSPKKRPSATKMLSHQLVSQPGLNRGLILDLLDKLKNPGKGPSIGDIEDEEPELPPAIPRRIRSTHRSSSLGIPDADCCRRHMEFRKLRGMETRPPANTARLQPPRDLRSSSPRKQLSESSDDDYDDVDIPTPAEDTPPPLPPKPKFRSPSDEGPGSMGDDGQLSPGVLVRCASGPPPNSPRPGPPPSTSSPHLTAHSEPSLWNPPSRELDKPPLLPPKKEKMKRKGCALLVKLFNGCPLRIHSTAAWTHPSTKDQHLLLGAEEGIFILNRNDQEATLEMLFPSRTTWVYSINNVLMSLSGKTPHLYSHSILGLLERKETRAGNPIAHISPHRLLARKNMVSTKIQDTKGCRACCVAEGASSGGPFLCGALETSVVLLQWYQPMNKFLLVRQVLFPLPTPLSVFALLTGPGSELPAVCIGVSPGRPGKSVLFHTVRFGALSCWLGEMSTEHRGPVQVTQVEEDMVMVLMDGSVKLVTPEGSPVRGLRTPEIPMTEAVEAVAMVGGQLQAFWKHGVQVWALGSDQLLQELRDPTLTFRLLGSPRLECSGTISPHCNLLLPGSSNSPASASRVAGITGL
Sequence of Mitogen-activated protein kinase 6 (Homo sapiens) (Q16659 whole entry): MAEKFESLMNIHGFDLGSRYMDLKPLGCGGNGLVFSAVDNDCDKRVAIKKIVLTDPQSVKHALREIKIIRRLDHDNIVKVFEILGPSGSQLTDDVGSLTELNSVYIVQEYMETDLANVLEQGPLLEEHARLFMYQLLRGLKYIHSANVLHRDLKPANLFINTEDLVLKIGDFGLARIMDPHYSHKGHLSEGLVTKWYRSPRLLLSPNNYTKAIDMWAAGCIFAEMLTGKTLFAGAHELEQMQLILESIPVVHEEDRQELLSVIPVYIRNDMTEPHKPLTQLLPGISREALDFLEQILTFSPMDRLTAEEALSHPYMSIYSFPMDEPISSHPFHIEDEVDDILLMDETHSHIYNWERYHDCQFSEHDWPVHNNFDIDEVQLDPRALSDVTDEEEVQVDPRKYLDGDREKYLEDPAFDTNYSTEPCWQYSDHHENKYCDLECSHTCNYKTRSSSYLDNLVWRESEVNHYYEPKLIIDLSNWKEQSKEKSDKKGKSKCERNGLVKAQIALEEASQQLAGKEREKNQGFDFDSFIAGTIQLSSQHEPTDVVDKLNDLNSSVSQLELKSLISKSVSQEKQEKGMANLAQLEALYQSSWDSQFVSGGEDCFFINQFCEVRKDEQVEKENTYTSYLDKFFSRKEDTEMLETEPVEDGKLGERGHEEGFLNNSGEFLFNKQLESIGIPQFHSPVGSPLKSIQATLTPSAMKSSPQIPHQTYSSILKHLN

| SMILES | residual activity [1] | residual activity [3] | residual activity [4] | residual activity [5] | residual activity [6] | residual activity [7] | residual activity [8] | residual activity [9] | residual activity [10] | inhibition [11] | residual activity [12] | further results |
| --- | --- | --- | --- | --- | --- | --- | --- | --- | --- | --- | --- | --- |
| NS(=O)(=O)c1cc(NC(=O)C2(c3ccccc3Cl)CC2)ccc1Oc1cccc(Cl)c1 [BAY-207] | 64% | 84% | 100% | 100% | 100% | 54% | 100% | 75% | 66% | -5.77% | 80% | inhibition [2]: 3.87% |
| NS(=O)(=O)c1cc(NC(=O)Cc2ccccc2)ccc1Oc1cccc(Cl)c1 [BAY-1797] | 100% | 100% | 85% | 90% | 86% | 83% | 98% | 84% | 91% | 46.3% | 100% | inhibition at 60 min, 10 µM [13]: 57%; Ki ([14]; read-out: Ki): 4.29 µM; Ki ([14]; read-out: pKi (converted)): 4.32 µM; inhibition [15]: 5%; inhibition [16]: 16%; inhibition [17]: 11%; inhibition [18]: 11%; inhibition [19]: -9%; inhibition [20]: 4%; inhibition [21]: 4% |
